Several values for one entry are separate records, joined by “and”; a condition that tells them apart may be missing. Identical values can stand only once.
Assay: Accelerated and long term stability study of TTI-101 (Batch A, Batch B): HPLC assay, purity, impurities and water content after storage at 5° C., 25° C./60% RH, 30° C./65% RH or 40° C./75% RH
Format: physicochemical
Settings: for Impurities RRT 1.06: RRT of Compound 4; for Impurities RRT 0.99: RRT of compound of formula (IV)
Procedure: Exemplary HPLC conditions: diluent was 0.1% trifluoroacetic acid (TFA) in acetonitrile, Mobile Phase A was 0.05% TFA in water, and Mobile Phase B was 0.05% TFA in acetonitrile, column (Agilent, Eclipse XDB-C18, 3.0×100 mm, particle size 1.8 μm), flow (0.425 mL/min), and detector (280 nm diode array).
Batch A was prepared analogously using Method 3 as described in Example 1. Batch B was prepared according to Method 5 as described in Example 1.
Samples of TTI-101 were stored at 5° C., 25° C./60% RH, 30° C./65% RH, or 40° C./75% RH. TTI-101 was stored in an LDPE bag enclosed with a Nylon cable tie and then transferred to another LDPE bag and enclosed with a Nylon cable tie. The enclosure was put into an HDPE bottle and closed with a polyethylene-lined polypropylene cap. The samples were stored under the above-identified conditions.
The samples were analyzed using HPLC with the exemplary conditions identified above. Relative retention time (RRT) for Compound 5 was about 0.83, Compound 4 was about 1.05-1.06, Compound 6 was about 1.15-1.17, and compound of formula (IV) was about 0.99.
• NA not applicable • NQ ≥0.02% and <0.05% • Avg average • Cmpd compound • — no peak • M month • RRT relative retention time

[1] = 25° C./60% RH, 6 M, P1/P2, listed as Batch A
[2] = 25° C./60% RH, 9 M, P1/P2, listed as Batch A
[3] = 25° C./60% RH, 12 M, P1/P2, listed as Batch A
[4] = 40° C./75% RH, 0 M, P1/P2, listed as Batch A
[5] = 40° C./75% RH, 2 M, P1/P2, listed as Batch A
[6] = 40° C./75% RH, 6 M, P1/P2, listed as Batch A

- Purity (%) (25° C./60% RH, 3 M, P1/P2): 99.7%
- Water Content (%) (25° C./60% RH, 3 M, P1/P2): <0.04%
- Assay (%) (25° C./60% RH, 3 M, P1/P2, listed as Batch A): 99.0% and 100.0%
- Assay (%) (25° C./60% RH, 6 M, Avg): 98.2%
- Impurities RRT 1.15 (Cmpd 6) (25° C./60% RH, 6 M, Avg): 0.11 area %
- Impurities Total (25° C./60% RH, 6 M, Avg): 0.1 area %
- Purity (%) (25° C./60% RH, 6 M, Avg): 99.9%
- Water Content (%) (25° C./60% RH, 6 M, Avg): <0.04%
- Impurities Total (25° C./60% RH, 6 M, P1/P2): 0.1 area %
- Purity (%) (25° C./60% RH, 6 M, P1/P2): 99.9%
- Water Content (%) (25° C./60% RH, 6 M, P1/P2): <0.04%
- Assay (%) [1]: 97.0% and 99.5%
- Impurities RRT 1.15 (Cmpd 6) [1]: 0.11 area % and 0.12 area %
- Assay (%) (25° C./60% RH, 9 M, Avg): 98.4%
- Impurities RRT 1.16 (Cmpd 6) (25° C./60% RH, 9 M, Avg): 0.10 area %
- Impurities Total (25° C./60% RH, 9 M, Avg): 0.1 area %
- Purity (%) (25° C./60% RH, 9 M, Avg): 99.9%
- Water Content (%) (25° C./60% RH, 9 M, Avg): <0.04%
- Impurities Total (25° C./60% RH, 9 M, P1/P2): 0.1 area %
- Purity (%) (25° C./60% RH, 9 M, P1/P2): 99.9%
- Water Content (%) (25° C./60% RH, 9 M, P1/P2): <0.04%
- Assay (%) [2]: 99.7% and 97.0%
- Impurities RRT 1.16 (Cmpd 6) [2]: 0.11 area % and 0.10 area %
- Assay (%) (25° C./60% RH, 12 M, Avg): 98.5%
- Impurities RRT 1.06 (Cmpd 4) (25° C./60% RH, 12 M, Avg): NQ (≥0.02% and <0.05%)
- Impurities RRT 1.16 (Cmpd 6) (25° C./60% RH, 12 M, Avg): 0.39 area %
- Impurities RRT 1.52 (25° C./60% RH, 12 M, Avg): NQ (≥0.02% and <0.05%)
- Impurities Total (25° C./60% RH, 12 M, Avg): 0.4 area %
- Purity (%) (25° C./60% RH, 12 M, Avg): 99.6%
- Water Content (%) (25° C./60% RH, 12 M, Avg): 0.04%
- Impurities RRT 1.06 (Cmpd 4) (25° C./60% RH, 12 M, P1/P2): NQ (≥0.02% and <0.05%)
- Impurities RRT 1.16 (Cmpd 6) (25° C./60% RH, 12 M, P1/P2): 0.39 area %
- Impurities Total (25° C./60% RH, 12 M, P1/P2): 0.4 area %
- Purity (%) (25° C./60% RH, 12 M, P1/P2): 99.6%
- Assay (%) [3]: 98.3% and 98.6%
- Water Content (%) [3]: <0.04% and 0.04%
- Assay (%) (25° C./60% RH, 18 M, Avg): 98.2%
- Impurities RRT 1.15 (Cmpd 6) (25° C./60% RH, 18 M, Avg): 0.10 area %
- Impurities Total (25° C./60% RH, 18 M, Avg): 0.1 area %
- Purity (%) (25° C./60% RH, 18 M, Avg): 99.9%
- Water Content (%) (25° C./60% RH, 18 M, Avg): <0.04%
- Impurities RRT 1.15 (Cmpd 6) (25° C./60% RH, 18 M, P1/P2): 0.10 area %
- Impurities Total (25° C./60% RH, 18 M, P1/P2): 0.1 area %
- Purity (%) (25° C./60% RH, 18 M, P1/P2): 99.9%
- Water Content (%) (25° C./60% RH, 18 M, P1/P2): <0.04%
- Impurities RRT 1.06 (25° C./60% RH, 18 M, P1/P2): NQ (≥0.02% and <0.05%)
- Assay (%) (25° C./60% RH, 18 M, P1/P2, listed as Batch A): 98.3% and 98.2%
- Assay (%) (25° C./60% RH, 24 M, Avg): 99.3%
- Impurities RRT 1.16 (Cmpd 6) (25° C./60% RH, 24 M, Avg): 0.12 area %
- Impurities Total (25° C./60% RH, 24 M, Avg): 0.1 area %
- Purity (%) (25° C./60% RH, 24 M, Avg): 99.9%
- Water Content (%) (25° C./60% RH, 24 M, Avg): <0.04%
- Impurities RRT 1.16 (Cmpd 6) (25° C./60% RH, 24 M, P1/P2): 0.12 area %
- Impurities Total (25° C./60% RH, 24 M, P1/P2): 0.1 area %
- Purity (%) (25° C./60% RH, 24 M, P1/P2): 99.9%
- Water Content (%) (25° C./60% RH, 24 M, P1/P2): <0.04%
- Impurities RRT 1.06 (25° C./60% RH, 24 M, P1/P2): NQ (≥0.02% and <0.05%)
- Assay (%) (25° C./60% RH, 24 M, P1/P2, listed as Batch A): 99.1% and 99.6%
- Assay (%) (40° C./75% RH, 0 M, Avg): 99.8%
- Impurities RRT 1.06 (Cmpd 4) (40° C./75% RH, 0 M, Avg): NQ (≥0.02% and <0.05%)
- Impurities RRT 1.17 (Cmpd 6) (40° C./75% RH, 0 M, Avg): 0.13 area %
- Impurities RRT 1.32 (40° C./75% RH, 0 M, Avg): NQ (≥0.02% and <0.05%)
- Impurities Total (40° C./75% RH, 0 M, Avg): 0.1 area %
- Purity (%) (40° C./75% RH, 0 M, Avg): 99.8%
- Water Content (%) (40° C./75% RH, 0 M, Avg): <0.04%
- Impurities RRT 0.99 (40° C./75% RH, 0 M, Avg): NQ (≥0.02% and <0.05%)
- Impurities RRT 1.32 (40° C./75% RH, 0 M, P1/P2): NQ (≥0.02% and <0.05%)
- Impurities Total (40° C./75% RH, 0 M, P1/P2): 0.1 area %
- Purity (%) (40° C./75% RH, 0 M, P1/P2): 99.8%
- Water Content (%) (40° C./75% RH, 0 M, P1/P2): <0.04%
- Assay (%) [4]: 99.9% and 99.7%
- Impurities RRT 1.17 (Cmpd 6) [4]: 0.13 area % and 0.12 area %
- Assay (%) (40° C./75% RH, 2 M, Avg): 99.9%
- Impurities RRT 1.16 (Cmpd 6) (40° C./75% RH, 2 M, Avg): 0.07 area %
- Impurities RRT 1.29 (40° C./75% RH, 2 M, Avg): NQ (≥0.02% and <0.05%)
- Impurities RRT 1.38 (40° C./75% RH, 2 M, Avg): NQ (≥0.02% and <0.05%)
- Impurities Total (40° C./75% RH, 2 M, Avg): 0.1 area %
- Purity (%) (40° C./75% RH, 2 M, Avg): 99.9%
- Water Content (%) (40° C./75% RH, 2 M, Avg): <0.04%
- Impurities RRT 0.99 (40° C./75% RH, 2 M, Avg): NQ (≥0.02% and <0.05%)
- Impurities RRT 1.38 (40° C./75% RH, 2 M, P1/P2): NQ (≥0.02% and <0.05%)
- Impurities Total (40° C./75% RH, 2 M, P1/P2): 0.1 area %
- Purity (%) (40° C./75% RH, 2 M, P1/P2): 99.9%
- Water Content (%) (40° C./75% RH, 2 M, P1/P2): <0.04%
- Impurities RRT 0.99 (40° C./75% RH, 2 M, P1/P2): NQ (≥0.02% and <0.05%)
- Assay (%) [5]: 100.0% and 99.8%
- Impurities RRT 1.16 (Cmpd 6) [5]: 0.08 area % and 0.06 area %
- Assay (%) (40° C./75% RH, 3 M, Avg): 99.0%
- Impurities RRT 0.36 (40° C./75% RH, 3 M, Avg): NQ (≥0.02% and <0.05%)
- Impurities RRT 1.06 (Cmpd 4) (40° C./75% RH, 3 M, Avg): 0.07 area %
- Impurities RRT 1.16 (Cmpd 6) (40° C./75% RH, 3 M, Avg): 0.21 area %
- Impurities Total (40° C./75% RH, 3 M, Avg): 0.3 area %
- Purity (%) (40° C./75% RH, 3 M, Avg): 99.7%
- Water Content (%) (40° C./75% RH, 3 M, Avg): <0.04%
- Impurities RRT 1.06 (Cmpd 4) (40° C./75% RH, 3 M, P1/P2): 0.07 area %
- Impurities RRT 1.16 (Cmpd 6) (40° C./75% RH, 3 M, P1/P2): 0.21 area %
- Impurities Total (40° C./75% RH, 3 M, P1/P2): 0.3 area %
- Purity (%) (40° C./75% RH, 3 M, P1/P2): 99.7%
- Water Content (%) (40° C./75% RH, 3 M, P1/P2): <0.04%
- Assay (%) (40° C./75% RH, 3 M, P1/P2, listed as Batch A): 100.8% and 97.2%
- Impurities RRT 1.15 (Cmpd 6) (40° C./75% RH, 6 M, Avg): 0.13 area %
- Impurities Total (40° C./75% RH, 6 M, Avg): 0.1 area %
- Purity (%) (40° C./75% RH, 6 M, Avg): 99.9%
- Water Content (%) (40° C./75% RH, 6 M, Avg): <0.04%
- Impurities Total (40° C./75% RH, 6 M, P1/P2): 0.1 area %
- Purity (%) (40° C./75% RH, 6 M, P1/P2): 99.9%
- Water Content (%) (40° C./75% RH, 6 M, P1/P2): <0.04%
- Assay (%) [6]: 98.5% and 95.9%
- Impurities RRT 1.15 (Cmpd 6) [6]: 0.13 area % and 0.12 area %
- Assay (%) (40° C./75% RH, 8 M, Avg): 100.3%
- Impurities RRT 1.16 (Cmpd 6) (40° C./75% RH, 8 M, Avg): 0.08 area %
- Impurities Total (40° C./75% RH, 8 M, Avg): 0.1 area %
- Purity (%) (40° C./75% RH, 8 M, Avg): 99.9%
- Water Content (%) (40° C./75% RH, 8 M, Avg): 0.04%
- Impurities Total (40° C./75% RH, 8 M, P1-P6): 0.1 area %
- Purity (%) (40° C./75% RH, 8 M, P1-P6): 99.9%
- Impurities Total (Storage 5° C., 0 M, Avg): 0.1 area %
- Impurity RRT 0.61 (Storage 5° C., 0 M, Avg): 0.05 area %
- Impurity RRT 0.86 (Storage 5° C., 0 M, Avg): NQ (≥0.02% and <0.05%)
- Impurity RRT 0.88 (Storage 5° C., 0 M, Avg): NQ (≥0.02% and <0.05%)
- Impurity RRT 0.99 (Storage 5° C., 0 M, Avg): NQ (≥0.02% and <0.05%)
- Impurity RRT 1.16 (Cmp 6) (Storage 5° C., 0 M, Avg): 0.07 area %
- Purity (Storage 5° C., 0 M, Avg): 99.8%
SMILES: COc1ccc(S(=O)(=O)Nc2cc(-c3c(O)ccc4ccccc34)c(O)c3ccccc23)cc1 [TTI-101]
- Assay (%) (40° C./75% RH, 8 M, P1-P6, listed as Batch A): 100.0% and 99.8% and 100.3% and 100.6% and 99.9% and 100.8%

Source: patent publication US20240033234A1, “THERAPEUTIC COMPOUNDS, FORMULATIONS, AND USE THEREOF” (Tvardi Therapeutics, Inc., priority 2022, published 2024)
